This passage reports IC50 and melting point results from patent US20120094958A1, “QUINOLINES AS INHIBITORS OF FARNESYL PYROPHOSPHATE SYNTHASE” (NOVARTIS AG, priority 2008, published 2012).

Structures can show the parent of a compound that is named as a salt.

One data set concerns the target T1, FPPS (Farnesyl pyrophosphate synthase) (Homo sapiens, UniProt P14324).
T1 sequence (P14324 1-353 isoform P14324-2): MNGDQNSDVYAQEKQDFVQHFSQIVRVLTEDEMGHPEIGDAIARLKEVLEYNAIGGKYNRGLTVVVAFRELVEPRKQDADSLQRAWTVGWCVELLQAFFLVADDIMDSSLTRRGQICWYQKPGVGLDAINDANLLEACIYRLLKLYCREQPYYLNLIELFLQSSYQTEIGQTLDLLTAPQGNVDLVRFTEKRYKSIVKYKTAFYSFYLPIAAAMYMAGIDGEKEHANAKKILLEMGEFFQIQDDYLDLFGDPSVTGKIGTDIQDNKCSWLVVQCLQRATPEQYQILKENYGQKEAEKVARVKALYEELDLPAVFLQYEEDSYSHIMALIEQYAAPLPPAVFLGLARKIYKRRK
In words: FPPS Assay: LC-MS Method. The class given is biochemical. The conditions noted are these: GPP/IPP 5 μM each, reaction stopped after 10 minutes. On the procedure: Recombinant human Farnesyl Pyrophosphate synthase (FPPS) was cloned, expressed and purified as previously described {J.-M. Rondeau et al., ChemMedChem 2006, 1, 267-271.} and stored as a 10 mg/mL stock solution in 25 mM Tris pH 7.4, 25 mM NaCl, 2 mM DTT (dithiothreitol). Geranyl pyrophosphate (GPP) was purchased from Anawa AG (Switzerland) and stored as a 1 mg/mL solution in 4 parts isopropanol:3 parts ammonia:1 part water. 1-[^3H]Isopentenyl pyrophosphate (IPP), 50 Ci/mmol; 1 Ci/mL, was purchased from Anawa AG and stored in ethanol:ammonia hydroxide 1:1 at −80 C. 1-[^3H] Farnesyl pyrophosphate triammonium salt, 100 Ci/mmol; 1 mCi/mL in 70% ethanol, 0.25 M ammonium bicarbonate was purchased from Anawa AG. Phospholipid-coated 384-well image FlashPlates™ were purchased from PerkinElmer. the assay buffer consisted of 20 mM HEPES pH7.4, 5 mM MgCl2 and 1 mM CaCl2.
Selected compounds are assayed in another FPPS based assay:
Into each well of a 384-well plate, 5 μL of compound in 20% DMSO/water is placed. 25 μL of GPP/IPP (5 μM each in assay buffer) is then added. The reaction is started with the addition of 10 μL of FPPS (diluted 1 to 10000 with assay buffer). After 10 minutes, the reaction is stopped by addition of 10 μL of 2 μM FSPP in 2% DMIPA/IPA. The reaction mixture is then extracted with 50 μL of n-pentanol using vortex mixing. After phase separation, 25 μL of the upper (n-pentanol) layer is transferred to a new 384-well plate and the pentanol is evaporated using a vacuum centrifuge. The dried residue is reconstituted in 50 μL of 0.1% DMIPA/water for analysis by the LC/MS/MS method.
LC/MS/MS analyses are performed on a Micromass Quattro Micro interfaced to an Agilent 1100 binary LC pump. Injection is performed by a Gilson 215/889 autosampler using an injection loop size of 2.5 μL. Chromatography is performed on a Waters 2.1×20 mm Xterra MS C18 5 μm guard column (P/N186000652) contained in a guard column holder (P/N 186000262) using 0.1% DMIPA/methanol as solvent A and 0.1% DMIPA/water as solvent B. The gradient is 5% A from 0.00 to 0.30 min, 50% A at 0.31 min, 80% A at 1.00 min, and 5% A from 1.01 to 2.00 min. The flow rate is 0.3 mL/min and the flow is diverted to waste from 0.00 to 0.50 min and again from 1.20 to 2.00 min.
The MRM transitions monitored are 381^−>79^− for FPP and 397^−>159^− for FSPP at a collision energy of 22 eV and a collision cell pressure of 2.1×10^−3 mbar of Ar. The dwell time per transition is 400 msec with a span of 0.4 Da. The interchannel delay and interscan delay are both 0.02 sec. Other mass spectrometric operating parameters are: capillary, 2.0 kV; cone, 35 V; extractor, 2.0 V, source temp., 100° C.; desolvation gas temp., 250° C.; desolvation gas flow, 650 L/hr; cone gas flow, 25 L/hr; multiplier, 650 V.
The total cycle time per sample is 2.5 minutes. Since the analysis is formatted for 384-well plates, a plate is analyzed in 16 hours. The chromatograms are processed using Quanlynx software, which divides the area of individual FPP peaks by the area of the FSPP peaks (internal standard). The resulting values are reported as the relative response for the corresponding sample well.
As usually defined, the IC50 is the midpoint of a concentration-inhibition curve. `CCOC(=O)Nc1cc(-c2cccc3ccccc23)c2nc(C(=O)O)ccc2c1` [Example 29, 6-Ethoxycarbonylamino-8-naphthalen-1-yl-quinoline-2-carboxylic acid] came in with an IC50 of 0.037 µM. This lies in the double-digit nanomolar range. The same measure, in the same setting: with `CCOc1c(N)cc(-c2cccc3ccccc23)c2nc(C(=O)O)ccc12` [Example 30, 6-Amino-5-ethoxy-8-naphthalen-1-yl-quinoline-2-carboxylic acid] the figure was 0.024 µM; with `Nc1cc(-c2cccc3ccccc23)c2nc(C(=O)O)ccc2c1` [Example 31, 6-Amino-8-naphthalen-1-yl-quinoline-2-carboxylic acid], 0.069 µM; with `O=C(O)c1ccc2cc(I)cc(-c3cccc4ccccc34)c2n1` [Example 32, 6-Iodo-8-naphthalen-1-yl-quinoline-2-carboxylic acid lithium salt], 0.16 µM. In turn, `CCOc1c(I)cc(-c2cccc3ccccc23)c2nc(C(=O)O)ccc12` [Example 33, 5-Ethoxy-6-iodo-8-naphthalen-1-yl-quinoline-2-carboxylic acid lithium salt] registered an IC50 of 0.056 µM. The same measure, in the same setting: with `O=C(O)c1ccc2cc(-c3ccsc3)cc(-c3cccc4ccccc34)c2n1` [Example 34, 8-Naphthalen-1-yl-6-thiophen-3-yl-quinoline-2-carboxylic acid] the figure was 0.1 µM; with `O=C(O)c1ccc2cc(-c3cccs3)cc(-c3cccc4ccccc34)c2n1` [Example 35, 8-Naphthalen-1-yl-6-thiophen-2-yl-quinoline-2-carboxylic acid lithium salt], 0.311 µM; with `Cc1cccc2c(-c3cccc4ccc(C(=O)O)nc34)cccc12` [Example 38, 8-(5-Methyl-naphthalen-1-yl)-quinoline-2-carboxylic acid], 0.217 µM.

Compound `Nc1cccc2c(-c3cccc4ccc(C(=O)O)nc34)cccc12` [Example 39, 8-(5-Amino-naphthalen-1-yl)-quinoline-2-carboxylic acid] showed an IC50 of 0.267 µM. In the case of `Nc1cc(-c2cccc3ccccc23)c2nc(/C=C/P(=O)(O)O)ccc2c1` [Example 42, [(E)-2-(6-Amino-8-naphthalen-1-yl-quinolin-2-yl)-vinyl]-phosphonic acid], the IC50 is 0.009 µM. Same read-out and setting: with `O=[N+]([O-])c1cc(-c2cccc3ccccc23)c2nc(/C=C/P(=O)(O)O)ccc2c1` [Example 43, [(E)-2-(6-Nitro-8-naphthalen-1-yl-quinolin-2-yl)-vinyl]-phosphonic acid] the figure was 0.103 µM. `COC(=O)Nc1cc(-c2cccc3ccccc23)c2nc(/C=C/P(=O)(O)O)ccc2c1` [Example 44, [(E)-2-(6-Methoxycarbonylamino-8-naphthalen-1-yl-quinolin-2-yl)-vinyl]-phosphonic acid]: half-maximal inhibition (IC50) required 0.014 µM. On the same count and under the same terms, next, `CC(=O)Nc1cc(-c2cccc3ccccc23)c2nc(/C=C/P(=O)(O)O)ccc2c1` [Example 45, [(E)-2-(6-Acetylamino-8-naphthalen-1-yl-quinolin-2-yl)-vinyl]-phosphonic acid]: 0.026 µM; `CS(=O)(=O)Nc1cc(-c2cccc3ccccc23)c2nc(/C=C/P(=O)(O)O)ccc2c1` [Example 46, [(E)-2-(6-Methanesulfonylamino-8-naphthalen-1-yl-quinolin-2-yl)-vinyl]-phosphonic acid]: 0.091 µM.

`CS(=O)(=O)N(c1cc(-c2cccc3ccccc23)c2nc(/C=C/P(=O)(O)O)ccc2c1)S(C)(=O)=O` [Example 47, {(E)-2-[6-(di-methanesulfonyl)amino-8-naphthalen-1-yl-quinolin-2-yl]-vinyl}-phosphonic acid] displayed an IC50 of 0.204 µM.

`O=C(Nc1cc(-c2cccc3ccccc23)c2nc(/C=C/P(=O)(O)O)ccc2c1)c1cccnc1` [Example 48, ((E)-2-{8-Naphthalen-1-yl-6-[(pyridine-3-carbonyl)-amino]-quinolin-2-yl}-vinyl)phosphonic acid] returned a half-maximal inhibitory concentration (IC50) of 0.012 µM. For `CCOC(=O)Nc1cc(-c2cccc3ccccc23)c2nc(-c3nn[nH]n3)ccc2c1` [Example 50, N-[8-Naphthalen-1-yl-2-(2H-tetrazol-5-yl)-quinolin-6-yl]-carbamic acid ethyl ester], the IC50 is 0.019 µM.

With `CC(=O)Nc1cc(-c2cccc3ccccc23)c2nc(-c3nn[nH]n3)ccc2c1` [Example 51, N-[8-Naphthalen-1-yl-2-(2H-tetrazol-5-yl)-quinolin-6-yl]-acetamide], the concentration for half-maximal inhibition (IC50) is 0.048 µM.

Test system in a further data set: not given
Assay: not given
Settings: not given
A word on the melting point: it is the temperature of the solid-liquid transition. In turn, `CCOC(=O)Nc1cc(-c2cccc3ccccc23)c2nc(C(=O)O)ccc2c1` [Example 29, 6-Ethoxycarbonylamino-8-naphthalen-1-yl-quinoline-2-carboxylic acid] returned a melting point of 205 to 208 °C. Same read-out and setting: next, `CCOc1c(N)cc(-c2cccc3ccccc23)c2nc(C(=O)O)ccc12` [Example 30, 6-Amino-5-ethoxy-8-naphthalen-1-yl-quinoline-2-carboxylic acid]: 182 to 184 °C. `O=C(O)c1ccc2cc(-c3ccsc3)cc(-c3cccc4ccccc34)c2n1` [Example 34, 8-Naphthalen-1-yl-6-thiophen-3-yl-quinoline-2-carboxylic acid] yielded a melting point of 164 to 166 °C.
